Assay results published in PubChem BioAssay AID1645863 (Buhrlage Lab, Dana-Farber Cancer Institute and Novartis …, 2021).
Active and inactive are the calls of the source. The rule behind the calls is not given here.

Each compound was assayed against Ubiquitin carboxyl-terminal hydrolase 10 (Homo sapiens) (UniProt Q14694) (assay: primary hit verification, biochemical, ubiquitin-specific protease 10 deubiquitylase inhibitors, concentration-effect titration (AID 1645863;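 note: potency values describe inhibition of USP10 cleavage of a fluorogenic ubiquitin substrate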)). Settings: USP10 deubiquitinase enzymatic assay.
Ubiquitin carboxyl-terminal hydrolase 10 (Homo sapiens), sequence (Q14694 whole entry, looked up): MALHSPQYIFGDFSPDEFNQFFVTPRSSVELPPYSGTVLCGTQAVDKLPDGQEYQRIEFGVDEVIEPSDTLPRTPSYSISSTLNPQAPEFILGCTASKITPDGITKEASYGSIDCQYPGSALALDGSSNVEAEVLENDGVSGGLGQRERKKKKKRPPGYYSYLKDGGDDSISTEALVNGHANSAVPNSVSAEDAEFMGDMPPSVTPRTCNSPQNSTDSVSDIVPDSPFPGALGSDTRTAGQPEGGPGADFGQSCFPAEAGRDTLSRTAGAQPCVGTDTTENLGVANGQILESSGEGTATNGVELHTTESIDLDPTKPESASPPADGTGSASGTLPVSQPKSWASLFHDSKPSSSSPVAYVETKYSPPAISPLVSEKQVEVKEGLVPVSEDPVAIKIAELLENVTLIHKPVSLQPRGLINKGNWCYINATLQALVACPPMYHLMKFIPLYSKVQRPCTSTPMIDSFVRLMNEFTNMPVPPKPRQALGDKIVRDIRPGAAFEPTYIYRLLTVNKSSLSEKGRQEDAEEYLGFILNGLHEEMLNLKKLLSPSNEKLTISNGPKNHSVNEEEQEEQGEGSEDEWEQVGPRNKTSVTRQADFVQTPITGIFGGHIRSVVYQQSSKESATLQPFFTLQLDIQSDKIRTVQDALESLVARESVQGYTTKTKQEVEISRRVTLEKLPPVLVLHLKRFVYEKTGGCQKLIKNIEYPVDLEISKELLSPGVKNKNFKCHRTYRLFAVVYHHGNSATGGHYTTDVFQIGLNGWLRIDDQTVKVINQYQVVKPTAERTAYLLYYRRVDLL

IC50	SMILES
15.8 µM	Cc1nc(-c2noc(-c3cccc(F)c3)n2)cn1CC(=O)Nc1ccccc1
> 40 µM (inactive)	O=C(Cn1c(=O)n(Cc2ccccc2)c(=O)c2ncccc21)NCc1ccccc1Cl
11.5 µM	O=C1C(=O)N(c2nc3ccc(F)cc3s2)C(c2ccc(F)cc2)/C1=C(\O)c1ccc(F)cc1 (configuration not stated)
13.3 µM	O=C(CC1C(=O)Nc2nc(-c3ccccc3)nn21)Nc1cccc2ccccc12 (configuration not stated)
23 µM	Cc1cc(NC(=O)Cn2c(=O)n(Cc3ccco3)c(=O)c3ccc(C(=O)NCCc4ccccc4)cc32)n[nH]1
35.7 µM	CCC(=O)N1c2ccccc2NC2=C(C(=O)CC(c3ccccc3OCc3ccccc3)C2)C1c1ccccc1 (configuration not stated)
> 40 µM (inactive)	Cc1c(Cl)cccc1NC(=O)Cn1cc(C(=O)C2CC2)c2ccccc21
> 40 µM (inactive)	Cc1ccccc1NC(=O)Cc1csc2nc(-c3ccc(F)cc3)cn12
34.9 µM	O=C(Cn1nnc2ccccc21)Nc1nc(-c2ccc3c(c2)CCN3C(=O)c2ccccc2F)cs1
> 40 µM (inactive)	Cn1c(O)c(C2=Nc3ccccc3SC(c3cccc(O)c3)C2)c(=O)[nH]c1=O (configuration not stated)
> 40 µM (inactive)	Cc1ccc(S(=O)(=O)N2CCC3(CC2)OC(=O)Nc2ccccc23)cc1
> 40 µM (inactive)	Cc1nn(-c2ccccc2)c2c1N=C1C(Cl)=CC(Cl)=CN1C21C(=O)Nc2ccccc21 (configuration not stated)
2.81 µM	Cc1ccc(Cn2cc(C(=O)Nc3ccccc3C(N)=O)ccc2=O)cc1
9.45 µM	O=C(NC1(O)C(=O)c2ccccc2C1=O)c1ccc(-c2csnn2)cc1
15.2 µM	COc1ccc(OCCn2c(C3CC(=O)N(c4cccc(C)c4)C3)nc3ccccc32)cc1 (configuration not stated)
15.5 µM	O=C1c2c(O)cccc2C2(Oc3cccc4cccc(c34)O2)C2OC12 (configuration not stated)
21.1 µM	COc1ccccc1NC(=O)c1nc(-c2cn(-c3cccc(F)c3)nn2)no1
> 40 µM (inactive)	Cc1cc(=O)n(CC(=O)Nc2ccc3c(c2)OCO3)c2c1c(-c1ccccc1)nn2-c1ccccc1
39.4 µM	CCc1nc(SCC(=O)Nc2ccc(Cl)c(Cl)c2)c2oc3ccccc3c2n1
> 40 µM (inactive)	CCc1ccc(-n2cc(OC(C)=O)c3c2nc(C)n2c4ccccc4nc32)cc1
> 40 µM (inactive)	O=C(NC1CCCC1)c1ccc(Cn2c(=O)c3ccccc3n(Cc3cc(=O)n4ccccc4n3)c2=O)cc1
35.3 µM	O=C(CCCc1nnc2c(=O)n(-c3cccc(F)c3)ccn12)NCc1ccc(F)cc1
> 40 µM (inactive)	Cc1nc2nc(C(c3ccccc3)c3ccccc3)[nH]n2c(=O)c1Cc1ccccc1
> 40 µM (inactive)	O=C(Cn1c(COc2ccccc2)nc2ccccc21)Nc1cc(Cl)ccc1Cl
21 µM	Cc1ccc(NC(=O)Cn2c(=O)n(CC(=O)NCCc3ccccc3)c(=O)c3sccc32)cc1C

Continued, compound first:

SMILES	IC50
CCc1ccc(NC(=O)c2cc(C(F)(F)F)n(C)n2)cc1	> 40 µM (inactive)
Cc1ccc(NC(=O)c2cc(-c3ccncc3)n[nH]2)cc1Cl	> 40 µM (inactive)
Cc1ccc(NC(=O)CSc2ccc(NC(=O)c3ccc(C(=O)O)cc3C(=O)O)cc2)c(C)c1	> 40 µM (inactive)
O=C(NC1CCCCCC1)c1cccc(S(=O)(=O)Nc2cc(C(F)(F)F)ccc2Cl)c1	21.1 µM
CSc1nc(N)c2c(n1)N[C@H]1OC[C@H](O)[C@H](O)[C@H]1N2	> 40 µM (inactive)
CCCCCC(=O)C(CCCC)c1oc(=O)c(CCCC)c(O)c1CCCC (configuration not stated)	31 µM
Cc1cccc(COc2ccc(C3SCC(=O)Nc4n[nH]c(C)c43)cc2)c1 (configuration not stated)	> 40 µM (inactive)
COCC(=O)N1CCC(n2c(C3CC3)nc3sc(C)c(C)c3c2=O)CC1	> 40 µM (inactive)
CCC(C(=O)C(C)C(O)C(C)CCc1ccc(C)c(O)c1C(=O)O)C1OC(CC)(C2CCC(O)(CC)C(C)O2)CC1C (configuration not stated)	9.99 µM
CCOc1ccc(Oc2nc(CN3CCCC3)nc3sc(C)c(C)c23)cc1	> 40 µM (inactive)
CCCCCCCc1cc(OC(=O)c2c(CCCCCCC)cc(O)cc2O[C@@H]2O[C@H](CO)[C@H](O)[C@H](O)[C@H]2O)cc(O)c1C(=O)O	5.17 µM
N=C1/C(=C/c2cn(Cc3ccc(F)cc3)c3ccccc23)C(=O)N=C2SC(Cc3ccccc3)=NN12	17.4 µM
COc1cccc(CNc2ccc(-c3nc(-c4ccccc4)no3)nn2)c1	> 40 µM (inactive)
Cc1ccc(C(=O)NCc2ccc(C(=O)Nc3ccc(Cl)cc3)o2)cc1	> 40 µM (inactive)
Cc1c(C(=O)NCc2cccc(Br)c2)oc2c1-c1[nH]ncc1CC2	> 40 µM (inactive)
CCNS(=O)(=O)c1ccc(-c2ccc(-n3cnnn3)cc2)cc1	> 40 µM (inactive)
O=C(NC1CCCCC1)C(c1ccc(F)cc1)N(C(=O)C1COc2ccccc2O1)c1ccc2c(c1)OCO2 (configuration not stated)	> 40 µM (inactive)
Cc1ccc(Nc2nc(NCC(=O)Nc3cc(C)ccc3C)nc(Nc3ccc(C)cc3)n2)cc1	32.8 µM
Cc1ccc(-c2nc3c(c(SCC(=O)c4ccccc4)n2)COC(C)(C)C3)cc1	> 40 µM (inactive)
O=C(CSc1ccc2nnc(-c3ccc(Cl)cc3)n2n1)N1CCCCC1	> 40 µM (inactive)
CCOc1ccc(CCNC(=O)Cn2c(-c3ccc(F)cc3)cc(C(C)=O)c2C)cc1OCC	> 40 µM (inactive)

SMILES	IC50
CCOc1ccc(-c2nnc(-c3cnc4onc(C5CCCC5)c4c3)o2)cc1	25 µM
O=C(Cn1c(=O)n(-c2ccc(CC(=O)NC3CCCC3)cc2)c(=O)c2ccccc21)Nc1ccccc1[N+](=O)[O-]	19.9 µM
CC(C)CC1NC(=O)C2CCCN2C1=O (configuration not stated)	> 40 µM (inactive)
Cc1ncc(-c2ccc3c(c2)OCO3)c(-c2nccs2)n1	> 40 µM (inactive)
COC(=O)c1ccc2c(=O)n(CCCCCC(=O)NCCc3ccc(S(N)(=O)=O)cc3)c(=O)[nH]c2c1	24.7 µM
O=C(Cn1c(COc2ccccc2)nc2ccccc21)Nc1ccc(N2CCOCC2)cc1	> 40 µM (inactive)
CCCCN1CC(C(=O)Nc2ccc(C(=O)Nc3ccc(C(N)=O)cc3)cc2)CC1=O (configuration not stated)	> 40 µM (inactive)
CC1OC2CC(O)C1(O)C1=C2C(O)=C(C(N)=O)C(=N)C1=O (configuration not stated)	7.46 µM
O=C(Cn1cnc2cc([N+](=O)[O-])ccc2c1=O)NCc1ccc2c(c1)OCO2	> 40 µM (inactive)
O=C(NCc1ccco1)c1ccc(Cn2c(=O)c3sccc3n(Cc3cc(=O)n4ccccc4n3)c2=O)cc1	> 40 µM (inactive)
O=C(Nc1ccc2c(c1)OCCO2)C1CCC(Cn2cnc3ccccc3c2=O)CC1 (configuration not stated)	> 40 µM (inactive)
Cc1ccccc1NC(=O)N1CCC(CC(=O)N2CCCCC2)CC1	> 40 µM (inactive)
COc1cccc(NC(=O)c2cn(-c3cc(N4CCCC4)ncn3)cn2)c1	> 40 µM (inactive)
CCC(=O)Nc1nc2cc(NC(=O)Nc3cccc(C)c3)ccc2s1	18.8 µM
Cc1noc(-c2ccnc(-n3cnc(C(=O)NCC4CC4)c3)c2)n1	> 40 µM (inactive)
CCCN1CCN(C(=O)Cn2c(C)ccc(NC(=O)c3ccccc3)c2=O)CC1	> 40 µM (inactive)
CCc1noc(-c2ccn3c(CC(=O)Nc4ccccc4C)nnc3c2)n1	8 µM
COc1ccc(-c2nc(NCCCN3CCOCC3)c3ccccc3n2)cc1	> 40 µM (inactive)
COc1ccc(Cl)cc1NC(=O)c1nc(-c2cn(-c3ccccc3)nn2)no1	14.1 µM
CC(C)CC(NC(=O)c1ccc(Cl)cc1Cl)c1nc2ccccc2[nH]1 (configuration not stated)	> 40 µM (inactive)
O=C(CSc1nc(=O)n(Cc2ccncc2)c2c1CCC2)NCCc1ccccc1	> 40 µM (inactive)
